Where two headings read alike, the source gives them in different places.

Assay [1] deals with T1, complement C5a receptor 1 (C5aR1) (Homo sapiens, UniProt P21730).
T1 construct: β-galactosidase fragment (PathHunter enzyme complementation); host or cells: CHO-K1 (PathHunter CHO-K1 C5aR1 β-arrestin cell line)
T1 sequence (P21730 1-350): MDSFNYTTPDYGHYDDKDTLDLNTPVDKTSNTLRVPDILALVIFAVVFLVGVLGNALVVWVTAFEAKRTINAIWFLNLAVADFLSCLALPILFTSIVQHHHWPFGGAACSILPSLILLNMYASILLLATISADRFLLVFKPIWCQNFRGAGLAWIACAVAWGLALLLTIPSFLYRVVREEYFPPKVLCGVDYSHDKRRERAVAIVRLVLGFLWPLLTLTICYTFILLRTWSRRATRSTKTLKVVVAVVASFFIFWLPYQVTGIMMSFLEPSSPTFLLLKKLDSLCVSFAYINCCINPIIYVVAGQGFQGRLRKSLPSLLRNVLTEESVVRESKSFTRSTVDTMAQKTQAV
The assay is described as follows: β-arrestin recruitment via C5aR1 activation in live CHO-K1 cells (PathHunter), agonist mode. Type of assay: cell-based. In outline: (§1)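 Live CHO-K1 cells expressing β-galactosidase fragments fused to β-arrestin and C5aR1; recruitment is read by fragment complementation. In agonist mode compounds are tested alone; in antagonist mode they compete against recombinant hC5a at EC90. IC50 reported in binned ranges.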

In assay [2] the target is T1, complement C5a receptor 1 (C5aR1). The assay is described as follows: β-arrestin recruitment via C5aR1 activation in live CHO-K1 cells (PathHunter), antagonist mode. Type of assay: cell-based. The conditions noted are these: antagonist mode; recombinant hC5a (EC90) as competing natural agonist; live CHO-K1 cells; read-out: [Antagonist] B-arrestin2 recruitment: Average IC50. In outline:
as §1

On to `Cc1cnc2cc([C@@H]3CC[C@@H](c4c(C)cccc4F)C3)c(=O)n(Cc3nccnc3C)c2n1` [172D, 7-((1R,3R)-3-(2-Fluoro-6-methylphenyl)cyclopentyl)-3-methyl-5-((3-methylpyrazin-2-yl)methyl)pyrido[2,3-b]pyrazin-6(5H)-one], for which the “[Agonist] B-arrestin2 recruitment: Average EC50 (nM)” value (from here on “[Agonist] B-arrestin2 recruitment”) in assay [1] (at 10 μM) was “Non-Active at 10 μM”. Moreover, in assay [2], the IC50 is 5000 to 100000 nM.

With `Cc1cnc2cc([C@H]3CC[C@H](c4c(C)cccc4F)CC3)c(=O)n([C@H]3CCC(F)(F)c4nccnc43)c2n1` [174A, 5-((S)-8,8-Difluoro-5,6,7,8-tetrahydroquinoxalin-5-yl)-7-((1r,4S)-4-(2-fluoro-6-methylphenyl)cyclohexyl)-3-methylpyrido[2,3-b]pyrazin-6(5H)-one], the “[Agonist] B-arrestin2 recruitment” value in assay [1] (at 10 μM) is “Non-Active at 10 μM”. Also, in assay [2], the IC50 was 5000 to 100000 nM.

For `Cc1cnc2cc([C@H]3CC[C@H](c4c(C)cccc4F)CC3)c(=O)n([C@@H]3CCC(F)(F)c4nccnc43)c2n1` [174B, 5-((R)-8,8-Difluoro-5,6,7,8-tetrahydroquinoxalin-5-yl)-7-((1r,4R)-4-(2-fluoro-6-methylphenyl)cyclohexyl)-3-methylpyrido[2,3-b]pyrazin-6(5H)-one], the “[Agonist] B-arrestin2 recruitment” value in assay [1] (at 10 μM) is “Non-Active at 10 μM”. Moreover, the IC50 in assay [2] was in the range of 500 to 5000 nM.

On to `Cc1cnc2cc([C@H]3CC[C@@H](c4c(C)cccc4F)C3)c(=O)n(Cc3ncccc3OC(F)F)c2n1` [175A, 5-((3-(Difluoromethoxy)pyridin-2-yl)methyl)-7-((1S,3R)-3-(2-fluoro-6-methylphenyl)cyclopentyl)-3-methylpyrido[2,3-b]pyrazin-6(5H)-one], for which the “[Agonist] B-arrestin2 recruitment” value in assay [1] is “Non-Active”. Further, in assay [2], the IC50 was under 500 nM.

Regarding `Cc1cnc2cc([C@@H]3CC[C@H](c4c(C)cccc4F)C3)c(=O)n(Cc3ncccc3OC(F)F)c2n1` [175B, 5-((3-(Difluoromethoxy)pyridin-2-yl)methyl)-7-((1R,3S)-3-(2-fluoro-6-methylphenyl)cyclopentyl)-3-methylpyrido[2,3-b]pyrazin-6(5H)-one], the “[Agonist] B-arrestin2 recruitment” value in assay [1] (at 10 μM) was “Non-Active at 10 μM”. Moreover, the IC50 in assay [2] was under 500 nM.

In the case of `Cc1cnc2cc([C@H]3CC[C@H](c4c(C)cccc4F)C3)c(=O)n(Cc3ncccc3OC(F)F)c2n1` [175C, 5-((3-(Difluoromethoxy)pyridin-2-yl)methyl)-7-((1S,3S)-3-(2-fluoro-6-methylphenyl)cyclopentyl)-3-methylpyrido[2,3-b]pyrazin-6(5H)-one], the “[Agonist] B-arrestin2 recruitment” value in assay [1] is “Non-Active”. Further, the IC50 in assay [2] is under 500 nM.

On to `Cc1cnc2cc([C@@H]3CC[C@@H](c4c(C)cccc4F)C3)c(=O)n(Cc3ncccc3OC(F)F)c2n1` [175D, 5-((3-(Difluoromethoxy)pyridin-2-yl)methyl)-7-((1R,3R)-3-(2-fluoro-6-methylphenyl)cyclopentyl)-3-methylpyrido[2,3-b]pyrazin-6(5H)-one], for which the “[Agonist] B-arrestin2 recruitment” value in assay [1] (at 10 μM) is given as “Non-Active at 10 μM”. Also, in assay [2], the IC50 lay within 500 to 5000 nM.

For `Cc1cnc2cc([C@H]3CC[C@@H](c4c(C)cccc4F)C3)c(=O)n(Cc3ncccc3C(F)F)c2n1` [187A, 5-((3-(Difluoromethyl)pyridin-2-yl)methyl)-7-((1S,3R)-3-(2-fluoro-6-methylphenyl)cyclopentyl)-3-methylpyrido[2,3-b]pyrazin-6(5H)-one], the “[Agonist] B-arrestin2 recruitment” value in assay [1] (at 10 μM) is recorded as “Non-Active at 10 μM”. The IC50 in assay [2] is under 500 nM.

In the case of `Cc1cnc2cc([C@H]3CC[C@H](c4c(C)cccc4F)C3)c(=O)n(Cc3ncccc3C(F)F)c2n1` [187B, 5-((3-(Difluoromethyl)pyridin-2-yl)methyl)-7-((1S,3S)-3-(2-fluoro-6-methylphenyl)cyclopentyl)-3-methylpyrido[2,3-b]pyrazin-6(5H)-one], the “[Agonist] B-arrestin2 recruitment” value in assay [1] (at 10 μM) is given as “Non-Active at 10 μM”. For the same molecule, the IC50 in assay [2] is under 500 nM.

For `Cc1cnc2cc([C@@H]3CC[C@H](c4c(C)cccc4F)C3)c(=O)n(Cc3ncccc3C(F)F)c2n1` [187C, 5-((3-(Difluoromethyl)pyridin-2-yl)methyl)-7-((1R,3S)-3-(2-fluoro-6-methylphenyl)cyclopentyl)-3-methylpyrido[2,3-b]pyrazin-6(5H)-one], the “[Agonist] B-arrestin2 recruitment” value in assay [1] (at 10 μM) is listed as “Non-Active at 10 μM”. Also, the IC50 in assay [2] was under 500 nM.

As for `Cc1cnc2cc([C@@H]3CC[C@@H](c4c(C)cccc4F)C3)c(=O)n(Cc3ncccc3C(F)F)c2n1` [187D, 5-((3-(Difluoromethyl)pyridin-2-yl)methyl)-7-((1R,3R)-3-(2-fluoro-6-methylphenyl)cyclopentyl)-3-methylpyrido[2,3-b]pyrazin-6(5H)-one], the “[Agonist] B-arrestin2 recruitment” value in assay [1] (at 10 μM) is recorded as “Non-Active at 10 μM”. Further, in assay [2], the concentration for half-maximal inhibition (IC50) was 500 to 5000 nM.

Consider `Cc1cnc2cc([C@H]3CC[C@@H](c4c(C)cccc4F)C3)c(=O)n(Cc3nccnc3C(F)(F)F)c2n1` [197A, 7-((1S,3R)-3-(2-Fluoro-6-methylphenyl)cyclopentyl)-3-methyl-5-((3-(trifluoromethyl)pyrazin-2-yl)methyl)pyrido[2,3-b]pyrazin-6(5H)-one], for which the “[Agonist] B-arrestin2 recruitment” value in assay [1] (at 10 μM) is “Non-Active at 10 μM”. The IC50 in assay [2] is under 500 nM.

For `Cc1cnc2cc([C@H]3CC[C@H](c4c(C)cccc4F)C3)c(=O)n(Cc3nccnc3C(F)(F)F)c2n1` [197B, 7-((1S,3S)-3-(2-Fluoro-6-methylphenyl)cyclopentyl)-3-methyl-5-((3-(trifluoromethyl)pyrazin-2-yl)methyl)pyrido[2,3-b]pyrazin-6(5H)-one], the “[Agonist] B-arrestin2 recruitment” value in assay [1] (at 10 μM) is “Non-Active at 10 μM”. In addition, the IC50 in assay [2] is 500 to 5000 nM.

Take `Cc1cnc2cc([C@@H]3CC[C@H](c4c(C)cccc4F)C3)c(=O)n(Cc3nccnc3C(F)(F)F)c2n1` [197C, 7-((1R,3S)-3-(2-Fluoro-6-methylphenyl)cyclopentyl)-3-methyl-5-((3-(trifluoromethyl)pyrazin-2-yl)methyl)pyrido[2,3-b]pyrazin-6(5H)-one]: in assay [1] (at 10 μM), the “[Agonist] B-arrestin2 recruitment” value is on record as “Non-Active at 10 μM”. In addition, the IC50 in assay [2] lay within 5000 to 100000 nM.

On to `Cc1cnc2cc([C@@H]3CC[C@@H](c4c(C)cccc4F)C3)c(=O)n(Cc3nccnc3C(F)(F)F)c2n1` [197D, 7-((1R,3R)-3-(2-Fluoro-6-methylphenyl)cyclopentyl)-3-methyl-5-((3-(trifluoromethyl)pyrazin-2-yl)methyl)pyrido[2,3-b]pyrazin-6(5H)-one], for which the “[Agonist] B-arrestin2 recruitment” value in assay [1] is listed as “Non-Active”. Moreover, the IC50 in assay [2] was under 500 nM.

As to `Cc1cccc(F)c1[C@H]1CC[C@@H](c2cc3nccnc3n(Cc3ncccc3C(F)(F)F)c2=O)C1` [200C, 7-((1R,3S)-3-(2-Fluoro-6-methylphenyl)cyclopentyl)-5-((3-(trifluoromethyl)pyridin-2-yl)methyl)pyrido[2,3-b]pyrazin-6(5H)-one], the “[Agonist] B-arrestin2 recruitment” value in assay [1] (at 10 μM) is listed as “Non-Active at 10 μM”. Further, the IC50 in assay [2] was in the range of 500 to 5000 nM.

Turning to `Cc1cccc(F)c1[C@@H]1CC[C@@H](c2cc3nccnc3n(Cc3ncccc3C(F)(F)F)c2=O)C1` [200D, 7-((1R,3R)-3-(2-Fluoro-6-methylphenyl)cyclopentyl)-5-((3-(trifluoromethyl)pyridin-2-yl)methyl)pyrido[2,3-b]pyrazin-6(5H)-one], in assay [1] (at 10 μM), the “[Agonist] B-arrestin2 recruitment” value is given as “Non-Active at 10 μM”. Moreover, the IC50 in assay [2] was under 500 nM.

Regarding `Cc1ccc2cc([C@H]3C[C@H](c4c(C)cccc4F)C3)c(=O)n(Cc3ncccc3C(F)(F)F)c2n1` [243A, 3-((1r,3r)-3-(2-Fluoro-6-methylphenyl)cyclobutyl)-7-methyl-1-((3-(trifluoromethyl)pyridin-2-yl)methyl)-1,8-naphthyridin-2(1H)-one], the “[Agonist] B-arrestin2 recruitment” value in assay [1] is “Non-Active”. For the same molecule, the IC50 in assay [2] is under 500 nM.

With `Cc1ccc2cc([C@H]3C[C@@H](c4c(C)cccc4F)C3)c(=O)n(Cc3ncccc3C(F)(F)F)c2n1` [243B, 3-((1s,3s)-3-(2-Fluoro-6-methylphenyl)cyclobutyl)-7-methyl-1-((3-(trifluoromethyl)pyridin-2-yl)methyl)-1,8-naphthyridin-2(1H)-one], the “[Agonist] B-arrestin2 recruitment” value in assay [1] is on record as “Non-Active”. Also, in assay [2], the IC50 is under 500 nM.

For the molecule `Cc1cccc(F)c1N1CCC(c2c(C)c3nccnc3n(Cc3ccccc3C(F)(F)F)c2=O)CC1` [compound 2, 7-(1-(2-Fluoro-6-methylphenyl)piperidin-4-yl)-8-methyl-5-(2-(trifluoromethyl)benzyl)pyrido[2,3-b]pyrazin-6(5H)-one], the “[Agonist] B-arrestin2 recruitment” value in assay [1] is “Non-Active”. Moreover, in assay [2], the half-maximal inhibitory concentration (IC50) was 500 to 5000 nM.

With `COc1nccnc1Cn1c(=O)c(C2CCN(c3c(C)cccc3F)CC2)c(C)c2nccnc21` [compound 3, 7-(1-(2-Fluoro-6-methylphenyl)piperidin-4-yl)-5-((3-methoxypyrazin-2-yl)methyl)-8-methyl pyrido[2,3-b]pyrazin-6(5H)-one], the “[Agonist] B-arrestin2 recruitment” value in assay [1] is recorded as “Non-Active”. Further, the IC50 in assay [2] was 500 to 5000 nM.

In the case of `Cc1cccc(F)c1N1CCC(c2c(C)c3nccnc3n(Cc3nccnc3OCC(F)(F)F)c2=O)CC1` [compound 4, 7-(1-(2-Fluoro-6-methylphenyl)piperidin-4-yl)-8-methyl-5-((3-(2,2,2-trifluoroethoxy)pyrazin-2-yl)methyl)pyrido[2,3-b]pyrazin-6(5H)-one], the “[Agonist] B-arrestin2 recruitment” value in assay [1] is recorded as “Non-Active”. In addition, the half-inhibitory concentration (IC50) in assay [2] fell in the range of 500 to 5000 nM.

(Values after patent US20260317320A1, “C5AR1 ANTAGONISTS AND USES THEREOF” (Vanqua Bio, Inc., priority 2022, published 2026).)
